US9428462B2, “4-[-2-[[5-methyl-1-(2-naphthalenyl)-1H-pyrazol-3-yl]oxy]ethyl]morpholine hydrochloride amorphous solid forms” (priority 2010, dated 2016)

Columns and labels:
Type in all cases: physicochemical
[1] = Drying experiments of the amorphous phase for four hours at different temperatures, solid analyzed by PXRD; conditions: for Solid phase after drying: PXRD
Protocol: (§1) Approximately 20 mg of the non manipulated samples were prepared in standard sample holders using two foils of polyacetate.
(§2) Powder diffraction patterns were acquired on a D8 Advance Series 2Theta/Theta powder diffraction system using CuKα-radiation in transmission geometry (Wavelength: 1.54060 Å). The system was equipped with a VANTEC-1 single photon counting PSD, a Germanium monochromator, a ninety positions auto changer sample stage, fixed divergence slits and radial soller. Programs used: Data collection with DIFFRAC plus XRD Commander V.2.5.1 and evaluation with EVA V.12.0.
In order to test the stability of the amorphous phase and to investigate its stability, different portions of the amorphous phase were dried for four hours at different temperatures (table 5). Once the samples were dried the solid was analyzed by PXRD.

[2] = 1H NMR check of the stability of the salt in amorphous form samples; conditions: several samples of the amorphous form, CDCl3
Protocol: In addition, several samples of the amorphous form obtained were analyzed by ^1H NMR in order to check the stability of the salt (FIG. 2 is a ^1H NMR spectrum of the amorphous phase).
Proton nuclear magnetic resonance analyses were recorded in deuterated chloroform (CDCl3) in a Bruker Avance 400 Ultrashield NMR spectrometer, equipped with a z-gradient 5 mm BBO (Broadband Observe) probe with ATM and an automatic BACS-120 autosampler. Spectra were acquired solving 2-10 mg of sample in 0.6 mL of deuterated solvent.

[3] = Drying experiments of the amorphous phase under vacuum (5-7 mbar) at different temperatures and times, solid analyzed by PXRD; conditions: for Solid phase after drying under vacuum: PXRD
Protocol: as §1, §2
In a second experiment, different portions of the amorphous phase were dried under vacuum conditions (5-7 mbar) at room temperature, 40° C. and 60° C. for different times (4, 8, 16 and 24 hours; table 6). Once the samples were dried, the solid was analyzed by PXRD. […] In the experiments performed at 40° C. the amorphous phase began to crystallize after 16 hours. In the experiments performed at 60° C. the amorphous phase began to crystallize after 8 hours and phase I could be clearly identified after 16 hours.

**Q.** With Cc1cc(OCCN2CCOCC2)nn1-c1ccc2ccccc2c1.Cl [amorphous phase, 4-[2-[[5-methyl-1-(2-naphthalenyl)-1H-pyrazol-3-yl]oxy]ethyl]morpholine hydrochloride] as the molecule, how does the “Solid phase after drying” value ([1]; Sample 1: dried four hours at rt) read?
**A.** amorphous

**Q.** And the “Solid phase after drying” value ([1]; Sample 2: dried four hours at 40 °C)?
**A.** amorphous

**Q.** And the “Solid phase after drying” value ([1]; Sample 3: dried four hours at 50 °C)?
**A.** amorphous

**Q.** What about the “Solid phase after drying” value ([1]; Sample 4: dried four hours at 60 °C) of the same molecule?
**A.** amorphous

**Q.** What about the “Solid phase after drying” value ([1]; Sample 5: dried four hours at 80 °C) of the same molecule?
**A.** amorphous + crystalline

**Q.** What about the “Solid phase after drying” value ([1]; Sample 6: dried four hours at 90 °C) of the same molecule?
**A.** amorphous + crystalline

**Q.** What about the “Solid phase after drying” value ([1]; Sample 7: dried four hours at 100 °C) of the same molecule?
**A.** phase I + crystalline

**Q.** And the “Solid phase after drying” value ([1]; Sample 8: dried four hours at 110 °C)?
**A.** phase I

**Q.** What about the “Solid phase after drying” value ([1]; Sample 9: dried four hours at 120 °C) of the same molecule?
**A.** phase I

**Q.** What about the “Stability of the amorphous phase on drying” value ([1]; four hours at temperature higher than 100° C.) of the same molecule?
**A.** transformed clearly to phase I

**Q.** And the “Stability of the amorphous phase on drying” value ([1]; temperatures over 60° C., four hours)?
**A.** transformed slightly to a crystalline phase, not clearly identified

**Q.** What about the “Stability of the amorphous phase on drying” value ([1]; temperatures up to 60° C. for four hours) of the same molecule?
**A.** amorphous phase was recovered

**Q.** What about the “Stability of the salt by 1H NMR” value [2] of the same molecule?
**A.** no signs of the lost of HCl or decomposition of the samples could be observed

**Q.** And the “Solid phase after drying under vacuum” value ([3]; Sample 10: vacuum 5-7 mbar, 23° C., 4 hours)?
**A.** amorphous

**Q.** What about the “Solid phase after drying under vacuum” value ([3]; Sample 11: vacuum 5-7 mbar, 23° C., 8 hours) of the same molecule?
**A.** amorphous

**Q.** And the “Solid phase after drying under vacuum” value ([3]; Sample 12: vacuum 5-7 mbar, 23° C., 16 hours)?
**A.** amorphous

**Q.** What about the “Solid phase after drying under vacuum” value ([3]; Sample 13: vacuum 5-7 mbar, 23° C., 24 hours) of the same molecule?
**A.** amorphous

**Q.** And the “Solid phase after drying under vacuum” value ([3]; Sample 14: vacuum 5-7 mbar, 40° C., 4 hours)?
**A.** amorphous

**Q.** And the “Solid phase after drying under vacuum” value ([3]; Sample 15: vacuum 5-7 mbar, 40° C., 8 hours)?
**A.** amorphous

**Q.** What about the “Solid phase after drying under vacuum” value ([3]; Sample 16: vacuum 5-7 mbar, 40° C., 16 hours) of the same molecule?
**A.** amorphous + phase I

**Q.** And the “Solid phase after drying under vacuum” value ([3]; Sample 17: vacuum 5-7 mbar, 40° C., 24 hours)?
**A.** amorphous + phase I

**Q.** And the “Solid phase after drying under vacuum” value ([3]; Sample 18: vacuum 5-7 mbar, 60° C., 4 hours)?
**A.** amorphous

**Q.** And the “Solid phase after drying under vacuum” value ([3]; Sample 19: vacuum 5-7 mbar, 60° C., 8 hours)?
**A.** amorphous + phase I

**Q.** What about the “Solid phase after drying under vacuum” value ([3]; Sample 20: vacuum 5-7 mbar, 60° C., 16 hours) of the same molecule?
**A.** phase I

**Q.** And the “Solid phase after drying under vacuum” value ([3]; Sample 21: vacuum 5-7 mbar, 60° C., 24 hours)?
**A.** phase I

**Q.** What about the “Time after which the amorphous phase began to crystallize” value ([3]; vacuum 5-7 mbar, 40° C.) of the same molecule?
**A.** 16 h

**Q.** What about the “Time after which phase I could be clearly identified” value ([3]; vacuum 5-7 mbar, 60° C.) of the same molecule?
**A.** 16 h

**Q.** And the “Time after which the amorphous phase began to crystallize” value ([3]; vacuum 5-7 mbar, 60° C.)?
**A.** 8 h

**Q.** What about the “Stability of the amorphous phase on drying under vacuum” value ([3]; vacuum 5-7 mbar, room temperature, up to 24 hours) of the same molecule?
**A.** did not change after drying
